Counter-ions that a name gives are not always drawn. Like-named read-outs stand apart in the source and are kept apart here.
Key:
[1] = target: T1, D-2 (dopamine-2) receptors (Rattus norvegicus, UniProt P61169); assay: biochemical; format: binding, male, Wistar rats; conditions: rat striatum P2 fraction, 3H-spiperone 0.05 nM; read-out: Receptor Binding (Ki nM) D2
T1 construct: The D2 assay employed a P2 fraction from the striatum, the ligand ^3H-spiperone at a concentration of 0.05 nM; from tissue; host or cells: rat striatum, P2 fraction (synaptosomal membranes), male Wistar rats
T1 sequence (P61169 whole entry): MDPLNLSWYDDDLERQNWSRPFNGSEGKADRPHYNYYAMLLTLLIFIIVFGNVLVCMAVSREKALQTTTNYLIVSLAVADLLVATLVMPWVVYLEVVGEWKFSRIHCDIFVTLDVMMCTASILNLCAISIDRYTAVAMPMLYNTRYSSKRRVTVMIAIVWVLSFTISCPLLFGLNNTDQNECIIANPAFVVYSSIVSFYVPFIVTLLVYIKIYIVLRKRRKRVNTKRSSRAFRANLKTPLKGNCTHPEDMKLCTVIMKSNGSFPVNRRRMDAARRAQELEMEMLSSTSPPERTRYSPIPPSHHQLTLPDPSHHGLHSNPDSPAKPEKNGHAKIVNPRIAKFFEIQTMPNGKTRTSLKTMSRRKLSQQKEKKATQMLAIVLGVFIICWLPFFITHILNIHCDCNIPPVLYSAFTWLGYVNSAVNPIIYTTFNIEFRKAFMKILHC
Description: The dopamine D2 binding activity of compounds was determined using a P2 fraction (synaptosomal membranes) prepared from male, Wistar rats.
The data from this assay were analyzed by calculating the percent inhibition of the binding of the tritiated ligands by given concentrations of the test compound. Kl values, where given, were obtained from the logit analysis of concentration-inhibition curves.

[2] = Overall statement on the antipsychotic screens (CAR test and D-2 affinity); conditions: as far as tested
Description: (§1) The antipsychotic activity of the compounds of the invention may be determined by the Block of Conditioned Avoidance Responding (Rat) test (CAR), references being Cook, L. and E. Weidley in Ann.

[3] = Overall statement on the other non-antipsychotic screens; conditions: screens in which they have been tested to date
Description: as §1

[4] = test system: Male, Fischer 344 rats; assay: Block of Conditioned Avoidance Responding (Rat) test (CAR); conditions: for CAR 15 mg/kg IP Administration (% change CAR) / CAR 5 mg/kg IP Administration (% change CAR): negative number = blockade of CAR
How it was run: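 Trained rats at 90% avoidance ran 60-trial sessions with a 15-sec light/tone conditioned stimulus, then a 0.7 mA shock. Vehicle was given on Day 1 and test compound on Day 2, with matched route and pretreatment time. The % change in CAR versus Day 1 and % escape failures are group means, with escape loss at 5 mg/kg unless noted.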

[5] = test system: Male Charles-River rats; assay: Rat Glass Bead Test (propulsive motility of the distal colon); format: in vivo; conditions: mean expulsion time of glass bead
Description: The rat glass bead test is used to evaluate the action of compounds on propulsive motility of the distal colon. Male Charles-River rats weighing 50-90 grams are fasted for at least 18 hours in individual cages with water provided. Groups of rats are then dosed by the indicated route at the appropriate pretreatment time. A 4 mm glass bead is then inserted 3.5 cm into the distal colon through the anus using a 4 mm diameter glass rod. Rats are then placed in open top glass jars and observed for 60 minutes. The time for expulsion of the bead is noted for each rat. Rats not expelling the bead after 60 minutes are necropsied and the presence of the bead in the colon confirmed. […] Statistical analysis is done using one way analysis of variance and Fisher's LSD comparison. A probability of less than 0.05 is considered to be statistically significant.

[6] = test system: spontaneously hypertensive rats (SHR model); assay: Spontaneously Hypertensive Rat Test (SHR); format: in vivo; conditions: 30 mg/kg p.o.
Description: Compounds #37 and 87 were also evaluated in the fully recovered, unanesthetized, unrestrained spontaneously hypertensive rats (SHR model) which is described hereinafter. They were deemed to be active because at doses of 30 mg/kg p.o. they caused a drop in the mean arterial pressure. For compound #37 the drop was 26 mm of mercury with an onset of 0.5 h and a duration of 3.5 h. For compound no. 87 the drop was 37 mm of mercury with an onset of 0.25 h and a duration of 5.75 h.
Adult male 350-450 g SHR [Tac:N(SHR)FBR], Taconic Farms, Germantown, New York are prepared for direct measurement of arterial pressure, housed in individual cages, and maintained on constant intraarterial infusion to assure catheter patency. Rats are permitted a 7-day postoperative recovery period to allow complete restoration of salt/water balance and body weight. Rats are assigned to vehicle or drug treatment groups (n=3/group). Drugs are uniformly suspended in 1% methylcellulose vehicle and given orally by gavage. Parameters are sampled continuously from the conscious, unrestrained rats and averaged every 15 min for the first 2 h and then hourly through 24 h after dosing. In order to take diurnal changes that are not drug related into account, 24 h timecourse curves for each parameter in drug treated SHR are compared to those from the concurrent control group. Since the average standard between-subject error is about 5 mm of mercury for arterial pressure parameters and about 11 bpm for heart rate, differences from concurrent control of greater than 10 mm of mercury and 22 bpm (2 SEM) are considered drug-related activity. Onset and duration are calculated from any pattern that achieves a maximum difference that meets these criteria.

[7] = test system: male, Sprague-Dawley rats; assay: Catalepsy Test in Rats; conditions: 50 mg/kg IP
Description: The catalepsy test is taken to evaluate the liability of anti-psychotics to produce extra-pyramidal side effects.
The forepaws of male, Sprague-Dawley rats obtained from Charles River (170-240 g) were gently placed on a black cork (3.5 cm high) and the time until the forepaw was removed was recorded. Each rat was given three trials with a maximum time of 60 sec on the cork. The sum of the three trials was taken as the score for each rat. Percent catalepsy was defined as the percent of 180 sec (maximum time) that a rat permitted its forepaw to rest on the cork. […] In each test session, two control groups were used; animals treated with saline (or vehicle) served as a negative control and animals treated with haloperidol were a positive control.

[8] = test system: apomorphine-induced emesis in the dog; assay: Block of Apomorphine-Induced Emesis In Dogs; format: in vivo; conditions: for ED50: Canis lupus familiaris, read-out: ED50 and 95% confidence limits, apomorphine HCl 1 mg/kg s.c.; for inhibition of apomorphine-induced emesis in the dog: in vivo
Description: This latter test is used in the preclinical evaluation of antipsychotics, and it also implies that the compounds could be used clinically for the treatment of emesis.
This procedure was modified from that described in Janssen, P. A. J.; Niemegeers, C. J. E.; Schellekens, K. Arzn.-Forch. […] The animals were treated with a test dose of apomorphine HCI to produce retching, and the effectiveness of a test compound in blocking that retching is determined. […] Following one of several pretreatments, a challenge dose of 1 mg/kg apomorphine HCl s.c. was given and the number of retches that occurred during the following 20 min period was recorded. At the start of the series, and after one week on testing, all dogs were pretreated with saline before the challenge dose of apomorphine HCI was administered. All of the saline-pretreated animals retched. […] Data were analyzed to determine the ED50 dose for blocking apomorphine HCI-induced emesis.

[9] = intravenous (IV) administration
[10] = oral administration, 1 h pretreatment
[11] = oral administration, 4 h pretreatment

Row | Ki [1] | (Escape Loss) % failures to escape ([4]; at CAR 5 mg/kg IP) | Structure (SMILES) | potential antipsychotic activity in either of the screens [2] | CAR 5 mg/kg IP Administration (% change CAR) [4] | Catalepsy (%) ([7]; Pre-Reaction Time 60 min) | Catalepsy (%) ([7]; Pre-Reaction Time 240 min) | Glass bead expulsion time ([5]; IP, 1.0 mg/kg) | further results
1 | > 1000 nM | – | O=C(c1cccc(CN2CCN(c3ncccn3)CC2)c1)N1CCC[C@H]1CO [Compound 20] | not exhibited potential antipsychotic activity | – | – | – | – | CAR 15 mg/kg IP Administration (% change CAR) [4]: -17%; (Escape Loss) % failures to escape ([4]; at CAR 15 mg/kg IP): 1%; activity in any of the other non-antipsychotic screens [3]: not exhibited activity
2 | > 1000 nM | – | CC(C)Oc1ccccc1N1CCN(Cc2cccc(C(=O)N3CCCCC3C(=O)O)c2)CC1 (stereo not shown) [Compound 24] | not exhibited potential antipsychotic activity | – | – | – | – | activity in any of the other non-antipsychotic screens [3]: not exhibited activity
3 | 703 nM | – | CC(O)COc1ccccc1N1CCN(Cc2cccc(C(=O)N3CCCCC3)c2)CC1 (stereo not shown) [Compound 27] | not exhibited potential antipsychotic activity | – | – | – | – | CAR 15 mg/kg IP Administration (% change CAR) [4]: -8%; (Escape Loss) % failures to escape ([4]; at CAR 15 mg/kg IP): 0%
4 | > 1000 nM | 1% | O=C(c1cccc(CN2CCN(c3ncccn3)CC2)c1)N1CCCCC1 [Compound 37] | not exhibited potential antipsychotic activity | -18% | – | – | – | Glass bead expulsion time ([5]; PO, 10.0 mg/kg): 25 min; activity in the SHR model [6]: active; drop in the mean arterial pressure [6]: 26 mm of mercury; duration of the drop in mean arterial pressure [6]: 3.5 h; onset of the drop in mean arterial pressure [6]: 0.5 h
5 | 29 nM | 42% | COc1ccccc1N1CCN(Cc2cccc(C(=O)N3CCCCC3)c2)CC1 [Compound 84] | – | -98% | 18.8% | 33.9% | 42 min | –
6 | 18 nM | 0% | O=C(c1cccc(CN2CCN(c3ccccc3Cl)CC2)c1)N1CCCCCC1 [Compound 93] | – | -23% | 20.0% | 1.9% | 25 min | –

Continued, compound first:

Row | Structure (SMILES) | Ki [1] | (Escape Loss) % failures to escape ([4]; at CAR 5 mg/kg IP) | potential antipsychotic activity in either of the screens [2] | CAR 5 mg/kg IP Administration (% change CAR) [4] | Catalepsy (%) ([7]; Pre-Reaction Time 60 min) | Catalepsy (%) ([7]; Pre-Reaction Time 240 min) | Glass bead expulsion time ([5]; IP, 1.0 mg/kg) | further results
7 | CC1CN(Cc2cccc(C(=O)N3CCCCC3)c2)CCN1c1ccccc1 (stereo not shown) [Compound 8] | > 1000 nM | – | not exhibited potential antipsychotic activity | – | – | – | – | activity in any of the other non-antipsychotic screens [3]: not exhibited activity
8 | O=C(c1cccc(CN2CCN(c3ccc4c(c3)OCO4)CC2)c1)N1CCCCC1 [Compound 36] | > 1000 nM | 0% | not exhibited potential antipsychotic activity | -10% | – | – | – | Glass bead expulsion time ([5]; PO, 10.0 mg/kg): 7.4 min
9 | CC(C)Oc1ccccc1C1CCN(Cc2cccc(C(=O)N3CCCCCC3)c2)CC1 [Compound 39] | 1.2 nM | 2% | – | -86% | 17.3% | – | – | –
10 | COc1ccc(OC)c(N2CCN(Cc3cccc(C(=O)N4CCCC4)c3)CC2)c1 [Compound 47] | > 1000 nM | – | not exhibited potential antipsychotic activity | – | – | – | – | CAR 15 mg/kg IP Administration (% change CAR) [4]: 2%; (Escape Loss) % failures to escape ([4]; at CAR 15 mg/kg IP): 0%; activity in any of the other non-antipsychotic screens [3]: not exhibited activity
11 | CC(C)Oc1ccccc1N1CCN(Cc2cccc(C(=O)N3CCCCC3)c2)CC1 [Compound 53, 1-[3-[[4-[2-(1-Methylethoxy)phenyl]-1-piperazinyl]methyl]benzoyl]piperidine Hydrochloride (3:2)] | – | – | – | – | 32.4% | 47.9% | – | CAR IP Administration (% change CAR) at 7.5 mg/kg ([4]; 7.5 mg/kg IP): -91%; (Escape Loss) % failures to escape ([4]; at CAR 7.5 mg/kg IP): 8%; ED50 [8, 9]: 0.03 mg/kg; ED50 [8, 10]: 0.038 mg/kg; ED50 [8, 11]: 0.263 mg/kg; inhibition of apomorphine-induced emesis in the dog [8]: particularly potent inhibitors
12 | CC(C)Oc1ccccc1N1CCN(Cc2cccc(C(=O)N3CCCCCC3)c2)CC1.Cl [Compound 54, Hexahydro-1-[3-[[4-[2-(1-methylethoxy)phenyl]-1-piperazinyl]methyl]-benzoyl]-1H-azepine monohydrochloride] | – | 5% | – | -88% | – | – | 16 min | ED50 [8, 9]: 0.019 mg/kg; ED50 [8, 10]: 0.047 mg/kg; ED50 [8, 11]: 0.251 mg/kg; inhibition of apomorphine-induced emesis in the dog [8]: particularly potent inhibitors
13 | CC(C)Oc1cc(F)ccc1N1CCN(Cc2cccc(C(=O)N3CCOCC3)c2)CC1 [Compound 80] | 79 nM | 14% | – | -91% | 84.8% | 62.0% | 14 min | –
14 | O=C(c1cccc(CN2CCN(c3ccc(Cl)cc3)CC2)c1)N1CCCCC1 [Compound 87] | – | – | not exhibited potential antipsychotic activity | – | – | – | 28 min | CAR 15 mg/kg IP Administration (% change CAR) [4]: -5%; (Escape Loss) % failures to escape ([4]; at CAR 15 mg/kg IP): 0%; activity in the SHR model [6]: active; drop in the mean arterial pressure [6]: 37 mm of mercury; duration of the drop in mean arterial pressure [6]: 5.75 h; onset of the drop in mean arterial pressure [6]: 0.25 h
15 | CC(C)Oc1ccccc1N1CCN(Cc2ccccc2C(=O)N2CCCCC2)CC1.Cl.Cl [Compound 111, 1-[2-[[4-[2-(1-Methylethoxy)phenyl]-1-piperazinyl]methyl]benzoyl]piperidine Dihydrochloride] | – | – | – | – | 52% | 50.7% | 11 min | –
16 | O=C(CCCN1CCC(O)(c2ccc(Cl)cc2)CC1)c1ccc(F)cc1 [Haloperidol, haloperidol, reference compound] | – | – | – | – | – | – | – | ED50 [8, 9]: 0.023 mg/kg; ED50 [8, 10]: 0.088 mg/kg; ED50 [8, 11]: 0.028 mg/kg
